Where two headings read alike, the source gives them in different places.
B1: TgDXR (Toxoplasma gondii ME49) (protein)
chain: PSTRVKRLVVLGSTGSIGKSTLEIAREFPDIFQIVGLAAGGSNLALLAEQVAAFRPQYVYLGDSSKVAELQERLNDHERSAAFPRPRLLLGDEGLAELACVPNYDILVSAIVGFKGVLPTLKALEAGKDVALANKEALVAAGPVFRCLLSTRGLLYGDQERQDRHERSHRSGDQEGDREEDTDGDRREECDKRRAKAGQKCGLLLPVDSEHSAIFQALQGVPASCYPPRKLLLTASGGPFRGRTRDELEQVTLESALKHPKWSMGAKITIDSATLMNKGLEVIEAHFAFGCPYSSIEVLVHPQAVIHSAVELRDGATLAQLGLPDMKLPIAYALTWPHRLAAPWSAGVDLTREGNLTFEKPDLNTFGCLGLAYEAGERGGVAPACLNAANEVAVERFRNKEIGFVDIEDTVRHVMALQERERDNFSDVSLQDVFDADHWARTAARAFKPRK

How the values were obtained:
[1] = test system: T. gondii ME49 tachyzoites; assay: T. gondii in vitro growth assay ([3H]-uracil incorporation); format: cell-based, Toxoplasma gondii; conditions: for activity against T. gondii growth (in words): T. gondii type II ME49 strain, [3H]-uracil incorporation; for IC50: Toxoplasma gondii, T. gondii type II ME49 strain in Hs27 host cells, n = 6
Protocol: With the aim to assess the inhibitory in vitro effect on parasite growth, T. gondii growth assays were performed as described previously [[78-80]]. Compounds, previously diluted in culture media in appropriate stock solutions, were added to confluent monolayers of Hs27 cells in 96-flat well plates at various concentrations. Then, freshly harvested tachyzoites were added to the cultures at a multiplicity of infection of 1:1 (parasite/host cell ratio). As controls, untreated and uninfected Hs27 cells, 24 h pre-stimulated and T. gondii infected cells with human interferon γ (IFN γ) (300 U/ml) (Merck, Darmstadt, Germany, #I17001) and T. gondii infected cells only were employed. After 48 h incubation, proliferating toxoplasmas were labelled with 0.3 μCi/well of tritiated uracil (^3H-U; 5 mCi, Hartmann Analytic, Braunschweig, Germany, #ART1782). After 28-30 h of incubation, plates were frozen at -20°C overnight. Cells were then thawed and harvested (Basic96 Harvester; Zinsser Analytic, Skatron Instruments, Northridge, CA, U.S.A.), purified with glass fibre filters (Printed Filtermat A 102 mm × 258 mm; PerkinElmer, Waltham, MA, U.S.A.) and dried at 130°C for 15-20 min. Dried filters were then wrapped into transparent plastic covers, dunked with 10 ml scintillation cocktail (Betaplate Scint; PerkinElmer, Waltham, MA, U.S.A., #1205-440), sealed and then loaded into metal cassettes and the incorporation of ^3H-uracil into the RNA of proliferating toxoplasmas was measured using a β-counter, a liquid scintillation counter that measure the […] (Betaplate Liquid Scintillation Counter 1205; LKB-[…], Melbourne, Australia). All data sets were normalized to 100% of the positive control. The dose-response curves of the compounds were fitted by means of the statistics software GraphPad PRISMTM (Version 9.5.1; San Diego, CA, U.S.A.). The minimal concentrations of compounds required for 50% inhibition of the parasite (IC50 values) were determined by non-linear regression analysis. Pyrimethamine was used as reference anti-toxoplasma compound.

[2] = MTT cytotoxicity assay on host cells; format: cell-based; conditions: human, Hs27 fibroblasts, 24 h incubation
Protocol: The method based on the reduction of the tetrazolium dye MTT [3-(4,5-dimethylthiazole-2-yl)-2,5-diphenyltetrazolium bromide] to its purple insoluble formazan by mitochondrial NAD(P)H-dependent cellular oxidoreductase enzymes in living cells, previously described by Mosmann was employed to assess the cytotoxic effects of the examined DXR inhibitors on the host cells, as previously described [[78–80]]. Briefly, Hs27 cells were cultured in 96-well plates at a concentration of 5 × 10^4/well in (IMDM, Gibco–Thermo Fisher Scientific, Waltham, MA, U.S.A., #12440053) with a volume of 100 µl per well and incubated at 37°C overnight. Then, eleven two-fold serially diluted concentrations of the investigated compounds ranging from […] were prepared and added to each well. Hs27 cells were then incubated for 24 h in humidified atmosphere of 5% CO2 in air. Controls included wells containing medium alone without cells (blank), untreated Hs27 cells, DMSO (negative control) and staurosporine (0.031, 0.062, 0.125, 0.25, 0.5, 1 µM) (Merck, Darmstadt, Germany, #S4400) as apoptosis inducer. After incubation, the culture media was replaced with 100 µl of DMEM medium without phenol (Gibco-Thermo Fisher Scientific, Waltham, MA, U.S.A., #21041025) plus 10% heat-inactivated (FBS Standard, South America origin, FBS, 2 µm sterile filtered, PAN-Biotech, Aidenbach, Germany, #P30-3306), and […] 2-mercaptoethanol (Gibco-Thermo Fisher Scientific, Waltham, MA, U.S.A., #21985023). Thereafter, the MTT reagent was added to each well and analysis conducted following the manufacture instructions (CyQuant MTT Cell Viability Assay Kit, Thermo Fisher Scientific, Waltham, MA, U.S.A., #V-13154). The absorbance was measured at 570 nm on an ELISA microplate reer (TECAN Sunrise, Männedorf, Switzerland) and the percentage of viability was calculated when compared with the untreated control. The data set was subsequently adjusted by applying blank correction. Cell viability values expressed as percentage of the negative control value were calculated as follows: %Cellviability=meanabsorbanceoftreatedwells−blank/meanabsorbanceofnegativecontrol−blank×100. The cytotoxicity of each compound was expressed as half maximal cytotoxic concentration (CC50 values) against Hs27 cells. These values were calculated by a non-linear regression using GraphPad PRISM™ statistics software package (Version 9.5.1; San Diego, CA, U.S.A.) plotting the percentage viability against the log of compound concentrations.

TgDXR [3] = biological target: T1, TgDXR (Toxoplasma gondii, UniProt S8ESX0); assay: T. gondii DXR enzyme inhibition assay (NADPH oxidation, absorption at 340 nm); format: biochemical; conditions: for Ki: Ki = IC50/(1 + [S]/Km), [S] = 100 µM DXP, Km = 30.58 µM
Protocol: The enzymatic assays were conducted at 30°C in 96 well plates using a total reaction volume of 150 µl containing 100 nM of purified TgDXR protein in dimeric state, 100 µM of NADPH and 4 mM of MgCl2 as cofactors, 100 µM of DXP as substrate in 50 mM HEPES buffer (pH 7.5) containing 50 µg/ml of BSA. For the screening, DXR inhibitors were tested for their inhibitory activity and their IC50 measurements at concentrations ranging from 100 µM to 3.05 nM, in dilution steps 1:2.
To optimize and to ensure the interaction of NADPH and its enzyme binding pocket, the assay solution was incubated for 10 min at 37°C. Then, the reaction was commenced with the addition of 100 µM of DXP to the complete assay mixture. The reaction was monitored by measuring the absorption at 340 nm every minute for 1 h using a microplate reader (Tecan® 200 Pro, Tecan Group, Männedorf, Switzerland). The initial velocity of the reactions were calculated, the values were then used in the software GraphPad PRISM™ (Version 9.5.1; San Diego, CA, U.S.A.) for determinations of the IC50 values.

human fibroblasts Hs27 = assay: MTT cytotoxicity assay on host cells; format: cell-based; conditions: concentration range 0.19–200 µM
TgDXR [4] = biological target: T1, TgDXR; assay: TgDXR enzyme kinetic characterization (Michaelis-Menten); format: biochemical; conditions: 100 nM TgDXR, substrate or cofactor varied 7.8 to 500 µM; n = 8
Protocol: (§1) To biochemically characterize the catalytic ability of the truncated TgDXR for the conversion of DXP into MEP in the presence of the cofactors Mg^2+ and NADPH, and to determine the optimum conditions for maximum enzyme activity, the enzymatic assays were monitored at 340 nm (maximal absorbance of NADPH) in different conditions.
(§2) The enzymatic activity was evaluated in fixed conditions, using 50 mM HEPES buffer containing 50 µg/ml of bovine serum albumin (BSA) containing 100 nM of purified TgDXR protein in dimeric state. In each experimental evaluation, only one parameter was varied: either the substrate (DXP) concentration (ranging from 7.8 to 500 µM), or the cofactor NADPH (ranging from 7.8 to 500 µM), or Mg^2+ concentration (ranging from 1 to 6 mM) or the pH (ranging from 5.5 to 9) (Figure 3).
(§3) For the determination of the kinetic parameters, various concentration of the substrate DXP or NADPH were employed for the determination of the apparent Km (substrate concentration that yield a half-maximal velocity) and Vmax (maximum velocity) for the enzyme. These parameters were calculated by a non-linear regression with the software GraphPad PRISM™ (Version 9.5.1; San Diego, CA, U.S.A.) plotting the initial velocity of the reactions and using the Michaelis–Menten model (Figure 3).

[5] = substrate: CC(=O)[C@@H](O)[C@H](O)COP(=O)(O)O; assay: as above; format: biochemical, Toxoplasma gondii; conditions: other: 100 nM TgDXR, substrate or cofactor varied 7.8 to 500 µM; n = 8
Protocol: as §1, §2, §3

[6] = 100 nM truncated His10-TgDXR, 100 µM NADPH, 4 mM MgCl2, 100 µM DXP, pH 7.5, 30°C, n = 6, read-out: IC50 ± S.D.

Molecule	activity against T. gondii growth (in words) [1]	IC50 [1] [µM]	CC50 at 24 h [2] [µM]	IC50 (TgDXR [3]; [6]) [µM]	Ki (TgDXR [3]) [µM]	host cell cytotoxicity (in words) (human fibroblasts Hs27)	IC50 (TgDXR [3]) [µM]	Km (TgDXR [4]) [µM]	Km [5] [µM]
CN(O)C(=O)CSC(c1cc(F)cc(F)c1)P(=O)(O)O (stereo not drawn) [Compound 5, ((3,5-difluorophenyl)((2-(hydroxy(methyl)amino)-2-oxoethyl)thio)methyl)phosphonic acid]	demonstrated activity	56 ± 6.11	> 200	2.45 ± 0.54	0.74				
O=CN(O)CCCP(=O)(O)O [Compound 1, Fosmidomycin, reference compound]	no activity	> 200	> 200			did not show any detectable host cytotoxicity	1.03 ± 0.21		
COc1cc(OC)cc(C(SCC(=O)N(C)O)P(=O)(O)O)c1 (stereo not drawn) [Compound 6, ((3,5-dimethoxyphenyl)((2-(hydroxy(methyl)amino)-2-oxoethyl)thio)methyl)phosphonic acid]	demonstrated activity	12.5 ± 5.56	> 200	3.9 ± 1.06	1.18				
CN(O)C(=O)COC(c1ccc(Cl)c(Cl)c1)P(=O)(O)O (stereo not drawn) [Compound 9, ((3,4-dichlorophenyl)(2-(hydroxy(methyl)amino)-2-oxoethoxy)methyl)phosphonic acid]		> 100	> 200	2.44 ± 0.43	0.74				
CN(O)C(=O)COC(c1ccccc1)P(=O)(O)O (stereo not drawn) [Compound 7, ((2-(hydroxy(methyl)amino)-2-oxoethoxy)(phenyl)methyl)phosphonic acid]	demonstrated activity	48.2 ± 8.56	> 200	5.82 ± 1.52					
CN(O)C(=O)CSC(c1ccc(Cl)c(Cl)c1)P(=O)(O)O (stereo not drawn) [Compound 4, ((3,4-dichlorophenyl)((2-(hydroxy(methyl)amino)-2-oxoethyl)thio)methyl)phosphonic acid]	demonstrated activity	5.46 ± 1.22	> 200	0.62 ± 0.12	0.19				
NADPH								51.3 ± 11.8	
CN(O)C(=O)COC(c1ccc(F)c(F)c1)P(=O)(O)O (stereo not drawn) [Compound 8, ((3,4-difluorophenyl)(2-(hydroxy(methyl)amino)-2-oxoethoxy)methyl)phosphonic acid]		> 100	> 200	52.14 ± 0.34					
CCc1nc(N)nc(N)c1-c1ccc(Cl)cc1 [Pyrimethamine, pyrimethamine, reference compound]		0.22 ± 0.05	> 100						
CN(O)C(=O)CSC(c1ccccc1)P(=O)(O)O (stereo not drawn) [Compound 2, (((2-(hydroxy(methyl)amino)-2-oxoethyl)thio)(phenyl)methyl)phosphonic acid]		> 100	> 200	1.23 ± 0.12	0.37				
Cc1ccc(C(OCC(=O)N(C)O)P(=O)(O)O)cc1 (stereo not drawn) [Compound 10, ((2-(hydroxy(methyl)amino)-2-oxoethoxy)(p-tolyl)methyl)phosphonic acid]		> 100	> 200	7.68 ± 0.87	2.51				
CN(O)C(=O)CSC(c1ccc(F)c(F)c1)P(=O)(O)O (stereo not drawn) [Compound 3, ((3,4-difluorophenyl)((2-(hydroxy(methyl)amino)-2-oxoethyl)thio)methyl)phosphonic acid]	demonstrated activity	14.4 ± 1.94	> 200	0.64 ± 0.38	0.19				
B1									30.58 ± 6.33
